Assays:
Melanocortin receptor 5 [1] = molecular target: T1, Melanocortin receptor 5 (Homo sapiens, UniProt P33032); assay: Agonist activity at human MC5R stably expressed in human Flp-In-293 cells assessed as cAMP accumulation at 1 uM incubated for 45 mins in presence of IBMX by Lance Ultra cAMP assay; format: functional, cell-based
Melanocortin receptor 3 [2] = molecular target: T2, Melanocortin receptor 3 (Homo sapiens, UniProt P41968); assay: Agonist activity at human MC3R stably expressed in human Flp-In-293 cells assessed as cAMP accumulation at 1 uM incubated for 45 mins in presence of IBMX by Lance Ultra cAMP assay; format: functional, cell-based; conditions: filed as agonist
T2 sequence (P41968 whole entry): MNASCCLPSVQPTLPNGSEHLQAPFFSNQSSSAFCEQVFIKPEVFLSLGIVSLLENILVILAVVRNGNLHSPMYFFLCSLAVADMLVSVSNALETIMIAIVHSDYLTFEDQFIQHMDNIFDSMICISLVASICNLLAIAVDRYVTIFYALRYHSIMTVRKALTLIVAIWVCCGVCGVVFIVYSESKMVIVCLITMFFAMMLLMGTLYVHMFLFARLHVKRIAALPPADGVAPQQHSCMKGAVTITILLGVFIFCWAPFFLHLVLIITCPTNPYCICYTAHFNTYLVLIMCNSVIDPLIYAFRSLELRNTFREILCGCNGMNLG

Melanocortin receptor 4 [3] = molecular target: T3, Melanocortin receptor 4 (Homo sapiens, UniProt P32245); assay: Agonist activity at human MC4R stably expressed in human Flp-In-293 cells assessed as cAMP accumulation incubated for 45 mins in presence of IBMX by Lance Ultra cAMP assay; format: functional, cell-based
T3 sequence (P32245 whole entry): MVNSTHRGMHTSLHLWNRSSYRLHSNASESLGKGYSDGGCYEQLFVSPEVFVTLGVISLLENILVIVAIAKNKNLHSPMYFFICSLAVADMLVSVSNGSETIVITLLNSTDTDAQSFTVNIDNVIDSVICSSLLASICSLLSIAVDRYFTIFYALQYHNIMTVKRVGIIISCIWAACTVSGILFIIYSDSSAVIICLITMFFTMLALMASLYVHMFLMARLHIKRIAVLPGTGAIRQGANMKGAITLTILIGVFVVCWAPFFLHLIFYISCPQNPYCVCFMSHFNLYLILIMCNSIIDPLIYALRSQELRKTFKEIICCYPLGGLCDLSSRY

[4] = molecular target: T4, Melanocyte-stimulating hormone receptor (Homo sapiens, UniProt Q01726); assay: Agonist activity at human MC1R stably expressed in human Flp-In-293 cells assessed as cAMP accumulation incubated for 45 mins in presence of IBMX by Lance Ultra cAMP assay; format: functional, cell-based
Target sequence in this assay (Q01726 whole entry): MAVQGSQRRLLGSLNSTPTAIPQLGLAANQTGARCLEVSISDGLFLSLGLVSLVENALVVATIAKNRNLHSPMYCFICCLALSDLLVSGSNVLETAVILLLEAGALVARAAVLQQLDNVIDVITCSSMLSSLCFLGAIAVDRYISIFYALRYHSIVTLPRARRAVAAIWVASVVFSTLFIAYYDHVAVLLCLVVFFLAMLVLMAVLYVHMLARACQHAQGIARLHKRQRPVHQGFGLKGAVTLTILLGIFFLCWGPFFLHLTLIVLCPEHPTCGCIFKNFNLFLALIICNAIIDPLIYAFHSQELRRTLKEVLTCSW

Melanocortin receptor 3 [5] = molecular target: T2, Melanocortin receptor 3; assay: Agonist activity at human MC3R stably expressed in human Flp-In-293 cells assessed as cAMP accumulation incubated for 45 mins in presence of IBMX by Lance Ultra cAMP assay; format: functional, cell-based
[6] = molecular target: T4, Melanocyte-stimulating hormone receptor; assay: Displacement of sCy5-MT-I from human MC1R stably expressed in human HEK293 cells incubated for 2 hrs by Cheng-Prusoff equation based FACS analysis; format: cell-based
Target sequence in this assay (Q01726 whole entry): as above

Melanocortin receptor 5 [7] = molecular target: T1, Melanocortin receptor 5; assay: Displacement of sCy5-MT-I from human MC5R stably expressed in human HEK293 cells incubated for 2 hrs by Cheng-Prusoff equation based FACS analysis; format: cell-based
Melanocortin receptor 3 [8] = molecular target: T2, Melanocortin receptor 3; assay: Displacement of sCy5-MT-I from human MC3R stably expressed in human HEK293 cells incubated for 2 hrs by Cheng-Prusoff equation based FACS analysis; format: cell-based
Melanocortin receptor 4 [9] = molecular target: T3, Melanocortin receptor 4; assay: Displacement of sCy5-MT-I from human MC4R stably expressed in human HEK293 cells incubated for 2 hrs by Cheng-Prusoff equation based FACS analysis; format: cell-based
Melanocortin receptor 5 [10] = molecular target: T1, Melanocortin receptor 5; assay: Agonist activity at human MC5R stably expressed in human Flp-In-293 cells assessed as cAMP accumulation incubated for 45 mins in presence of IBMX by Lance Ultra cAMP assay; format: functional, cell-based
[11] = molecular target: T4, Melanocyte-stimulating hormone receptor; assay: Agonist activity at human MC1R stably expressed in human Flp-In-293 cells assessed as cAMP accumulation at 1 uM incubated for 45 mins in presence of IBMX by Lance Ultra cAMP assay; format: functional, cell-based; conditions: filed as agonist
Target sequence in this assay (Q01726 whole entry, looked up): as the sequence (Q01726 whole entry) above

T1 sequence (P33032 whole entry): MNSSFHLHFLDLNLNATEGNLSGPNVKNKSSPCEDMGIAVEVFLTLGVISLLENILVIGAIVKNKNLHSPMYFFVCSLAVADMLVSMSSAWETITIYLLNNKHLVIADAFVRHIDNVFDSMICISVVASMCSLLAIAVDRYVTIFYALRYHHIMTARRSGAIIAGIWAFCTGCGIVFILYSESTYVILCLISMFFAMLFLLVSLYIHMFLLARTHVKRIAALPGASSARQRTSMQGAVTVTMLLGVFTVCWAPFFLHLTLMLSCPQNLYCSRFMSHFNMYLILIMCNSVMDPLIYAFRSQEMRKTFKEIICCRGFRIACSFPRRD

Row | SMILES | Activity (Melanocortin receptor 5 [1]; filed as agonist) | Activity (Melanocortin receptor 3 [2]) | EC50 (Melanocortin receptor 4 [3]; read-out: EC50) | EC50 ([4]; read-out: EC50) | EC50 ([4]; read-out: pEC50 (converted)) | EC50 (Melanocortin receptor 3 [5]) | Ki [6] | Activity (Melanocortin receptor 5 [1]) | Ki (Melanocortin receptor 5 [7]) | EC50 (Melanocortin receptor 4 [3]; read-out: pEC50 (converted)) | Ki (Melanocortin receptor 3 [8]) | Ki (Melanocortin receptor 4 [9]; read-out: pKi (converted)) | EC50 (Melanocortin receptor 5 [10]) | Ki (Melanocortin receptor 4 [9]; read-out: Ki) | Activity [11]
1 | C[C@H]1NC(=O)c2cc([N+](=O)[O-])ccc2SC[C@@H](C(N)=O)NC(=O)[C@H](Cc2c[nH]c3ccccc23)NC(=O)[C@H](CCCNC(=N)N)NC(=O)[C@@H](Cc2ccccc2)NC(=O)[C@H](Cc2c[nH]cn2)NC1=O |  |  |  |  | 1.58 nM | 200 nM | 1.12 nM | 15% | > 1000 nM | 1 nM | 79.4 nM | 0.102 nM |  |  | 
2 | C[C@H]1NC(=O)c2cc(N)ccc2SC[C@@H](C(N)=O)NC(=O)[C@H](Cc2c[nH]c3ccccc23)NC(=O)[C@H](CCCNC(=N)N)NC(=O)[C@@H](Cc2ccccc2)NC(=O)[C@H](Cc2c[nH]cn2)NC1=O |  |  |  |  | 10 nM | 50.1 nM | 5.01 nM | 17% | > 1000 nM | 1.58 nM | 97.7 nM | 0.148 nM |  |  | 
3 | C#Cc1ccc2c(c1)C(=O)N[C@H](C)C(=O)N[C@@H](Cc1c[nH]cn1)C(=O)N[C@H](Cc1ccccc1)C(=O)N[C@@H](CCCNC(=N)N)C(=O)N[C@@H](Cc1c[nH]c3ccccc13)C(=O)N[C@H](C(N)=O)CS2 |  |  |  |  | 2.24 nM | 34.7 nM | 3.39 nM |  | > 1000 nM | 0.447 nM | 132 nM | 0.457 nM | 372 nM |  | 
4 | N=C(N)NCCC[C@@H]1NC(=O)[C@@H](Cc2ccccc2)NC(=O)[C@H](Cc2c[nH]cn2)NC(=O)c2cc(N)ccc2SC[C@@H](C(N)=O)NC(=O)[C@H](Cc2c[nH]c3ccccc23)NC1=O | 60% | 42% |  |  | 50.1 nM |  | 269 nM |  | > 1000 nM | 316 nM | 813 nM | 0.331 nM |  |  | 
5 | C[C@H]1NC(=O)c2cc(C#N)ccc2SC[C@@H](C(N)=O)NC(=O)[C@H](Cc2c[nH]c3ccccc23)NC(=O)[C@H](CCCNC(=N)N)NC(=O)[C@@H](Cc2ccccc2)NC(=O)[C@H](Cc2c[nH]cn2)NC1=O |  |  |  |  | 2.69 nM | 39.8 nM | 3.8 nM | 34% | > 1000 nM | 0.501 nM | 263 nM | 0.141 nM |  |  | 
6 | C[C@@H]1NC(=O)[C@H](Cc2c[nH]c3ccccc23)NC(=O)[C@H](CCCNC(=N)N)NC(=O)[C@@H](Cc2ccccc2)NC(=O)[C@H](Cc2c[nH]cn2)NC(=O)c2cc([N+](=O)[O-])ccc2SC[C@@H](C(N)=O)NC1=O |  |  |  |  | 9.77 nM | 31.6 nM | 1.26 nM | 5% | > 1000 nM | 6.31 nM | 7.94 nM | 1.26 nM |  |  | 
7 | N#Cc1ccc2c(c1)C(=O)N[C@@H](Cc1c[nH]cn1)C(=O)N[C@H](Cc1ccccc1)C(=O)N[C@@H](CCCNC(=N)N)C(=O)N[C@@H](Cc1c[nH]c3ccccc13)C(=O)N[C@H](C(N)=O)CS2 |  | 44% |  |  |  |  | 158 nM | 0% | > 1000 nM | 63.1 nM | 661 nM | 0.794 nM |  |  | 58%
8 | C[C@@H]1NC(=O)c2cc([N+](=O)[O-])ccc2SC[C@@H](C(N)=O)NC(=O)[C@H](Cc2c[nH]c3ccccc23)NC(=O)[C@H](CCCNC(=N)N)NC(=O)[C@@H](Cc2ccccc2)NC(=O)[C@H](Cc2c[nH]cn2)NC1=O |  |  |  |  | 63.1 nM | 1260 nM | 56.2 nM | 11% | > 1000 nM | 20 nM | 513 nM | 3.02 nM |  |  | 
9 | NC(=O)[C@@H]1CSc2ccc([N+](=O)[O-])cc2C(=O)N[C@@H](Cc2cnc[nH]2)C(=O)N[C@H](Cc2ccccc2)C(=O)N[C@@H](CCCN=C(N)N)C(=O)N[C@@H](Cc2c[nH]c3ccccc23)C(=O)N1 |  |  |  |  | 1260 nM | 5010 nM | 126 nM |  | > 1000 nM | 501 nM | 316 nM | 1.58 nM |  |  | 

Other lines, results leading:

Row | Activity (Melanocortin receptor 5 [1]; filed as agonist) | Activity (Melanocortin receptor 3 [2]) | EC50 (Melanocortin receptor 4 [3]; read-out: EC50) | EC50 ([4]; read-out: EC50) | EC50 ([4]; read-out: pEC50 (converted)) | EC50 (Melanocortin receptor 3 [5]) | Ki [6] | Activity (Melanocortin receptor 5 [1]) | Ki (Melanocortin receptor 5 [7]) | EC50 (Melanocortin receptor 4 [3]; read-out: pEC50 (converted)) | Ki (Melanocortin receptor 3 [8]) | Ki (Melanocortin receptor 4 [9]; read-out: pKi (converted)) | EC50 (Melanocortin receptor 5 [10]) | Ki (Melanocortin receptor 4 [9]; read-out: Ki) | Activity [11] | SMILES
10 | 64% | 73% | 0.98 nM | 24 nM | 20.9 nM |  |  |  |  |  |  |  |  |  |  | C[C@@H]1NC(=O)c2cc(NC(=S)Nc3ccc4c(c3)C(=O)OC43c4ccc(O)cc4Oc4cc(O)ccc43)ccc2SC[C@@H](C(N)=O)NC(=O)[C@H](Cc2c[nH]c3ccccc23)NC(=O)[C@H](CCCNC(=N)N)NC(=O)[C@@H](Cc2ccccc2)NC(=O)[C@H](Cc2c[nH]cn2)NC1=O
11 |  |  |  |  | 34.7 nM | 316 nM | 64.6 nM | 14% | > 1000 nM | 89.1 nM | 741 nM | 0.234 nM |  |  |  | C#Cc1ccc2c(c1)C(=O)N[C@@H](Cc1c[nH]cn1)C(=O)N[C@H](Cc1ccccc1)C(=O)N[C@@H](CCCNC(=N)N)C(=O)N[C@@H](Cc1c[nH]c3ccccc13)C(=O)N[C@H](C(N)=O)CS2
12 |  |  |  |  | 16.6 nM | 63.1 nM | 2.51 nM |  | > 1000 nM | 0.135 nM | 174 nM |  | 295 nM | 0.06 nM |  | C[C@@H]1NC(=O)c2cc(-c3cn([C@@H]4O[C@H](CO)[C@@H](O)[C@H](O)[C@H]4O)nn3)ccc2SC[C@@H](C(N)=O)NC(=O)[C@H](Cc2c[nH]c3ccccc23)NC(=O)[C@H](CCCNC(=N)N)NC(=O)[C@@H](Cc2ccccc2)NC(=O)[C@H](Cc2c[nH]cn2)NC1=O
13 |  |  |  |  |  |  |  | 3% |  |  |  |  |  |  |  | N=C(N)NCCC[C@@H]1NC(=O)[C@@H](Cc2ccccc2)NC(=O)[C@H](Cc2cnc[nH]2)NC(=O)c2cc([N+](=O)[O-])ccc2SC[C@@H](C(N)=O)NC(=O)[C@H](Cc2c[nH]c3ccccc23)NC1=O
14 | 41% |  |  |  | 4.79 nM | 91.2 nM | 3.55 nM |  | > 1000 nM | 0.275 nM | 148 nM | 0.162 nM |  |  |  | C[C@H]1NC(=O)c2cc(C(=N)N)ccc2SC[C@@H](C(N)=O)NC(=O)[C@H](Cc2c[nH]c3ccccc23)NC(=O)[C@H](CCCNC(=N)N)NC(=O)[C@@H](Cc2ccccc2)NC(=O)[C@H](Cc2c[nH]cn2)NC1=O
15 |  |  |  |  | 33.9 nM | 7.94 nM | 79.4 nM | 1% | > 1000 nM | 5.01 nM | 437 nM | 0.871 nM |  |  |  | C[C@H]1NC(=O)[C@H](Cc2c[nH]c3ccccc23)NC(=O)[C@H](CCCNC(=N)N)NC(=O)[C@@H](Cc2ccccc2)NC(=O)[C@H](Cc2c[nH]cn2)NC(=O)c2cc([N+](=O)[O-])ccc2SC[C@@H](C(N)=O)NC1=O

— ChEMBL document CHEMBL5316346, “Targeting Melanocortin Receptors Using SNAr-Type Macrocyclization: A Doubly Orthogonal Route to Cyclic Peptide Conjugates” (J Med Chem, 2023)
